According to PubChem BioAssay (NCI):
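GI50 is the concentration that inhibits growth by half. TGI denotes the concentration required for complete inhibition of growth.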

Tests used:
Experiment in all cases: inhibition of tumour cell growth, NCI panel, 384-well format
HCC-2998 colon = tested on: HCC-2998 colon
DU-145 prostate = tested on: DU-145 prostate
M14 melanoma = tested on: M14 melanoma
NCI-H23 lung = tested on: NCI-H23 lung
ACHN renal = tested on: ACHN renal
HT29 colon = tested on: HT29 colon
NCI-H460 NSCLC = tested on: NCI-H460 NSCLC
SK-MEL-2 melanoma = tested on: SK-MEL-2 melanoma
NCI/ADR-RES ovarian = tested on: NCI/ADR-RES ovarian
OVCAR-4 ovarian = tested on: OVCAR-4 ovarian
NCI-H226 lung = tested on: NCI-H226 lung
SK-MEL-5 melanoma = tested on: SK-MEL-5 melanoma
LOX IMVI melanoma = tested on: LOX IMVI melanoma
RPMI-8226 leukemia = tested on: RPMI-8226 leukemia
HCT-15 colon = tested on: HCT-15 colon
A549 NSCLC = tested on: A549 NSCLC
U251 glioblastoma = tested on: U251 glioblastoma
UO-31 renal = tested on: UO-31 renal
SN12C renal = tested on: SN12C renal
UACC-257 melanoma = tested on: UACC-257 melanoma
K-562 leukemia = tested on: K-562 leukemia
A498 renal = tested on: A498 renal
MALME-3M melanoma = tested on: MALME-3M melanoma
MDA-MB-468 breast = tested on: MDA-MB-468 breast
CAKI-1 renal = tested on: CAKI-1 renal
SR leukemia = tested on: SR leukemia
HL-60(TB) leukemia = tested on: HL-60(TB) leukemia
PC-3 prostate = tested on: PC-3 prostate
SW-620 colon = tested on: SW-620 colon
BT-549 breast = tested on: BT-549 breast
TK-10 renal = tested on: TK-10 renal
SNB-19 CNS = tested on: SNB-19 CNS
OVCAR-8 ovarian = tested on: OVCAR-8 ovarian
SF-539 CNS = tested on: SF-539 CNS
OVCAR-3 ovarian = tested on: OVCAR-3 ovarian
MOLT-4 leukemia = tested on: MOLT-4 leukemia
786-0 renal = tested on: 786-0 renal
SF-268 CNS = tested on: SF-268 CNS
MDA-MB-231 breast = tested on: MDA-MB-231 breast
KM12 colon = tested on: KM12 colon
OVCAR-5 ovarian = tested on: OVCAR-5 ovarian
HOP-62 NSCLC = tested on: HOP-62 NSCLC
SK-MEL-28 melanoma = tested on: SK-MEL-28 melanoma
T-47D breast = tested on: T-47D breast
NCI-H522 lung = tested on: NCI-H522 lung
HCT-116 colon = tested on: HCT-116 colon
MCF7 breast = tested on: MCF7 breast
MDA-MB-435 melanoma = tested on: MDA-MB-435 melanoma
SF-295 CNS = tested on: SF-295 CNS
HOP-92 NSCLC = tested on: HOP-92 NSCLC
COLO 205 colon = tested on: COLO 205 colon
UACC-62 melanoma = tested on: UACC-62 melanoma
CCRF-CEM leukemia = tested on: CCRF-CEM leukemia
NCI-H322M lung = tested on: NCI-H322M lung
SK-OV-3 ovarian = tested on: SK-OV-3 ovarian
IGROV1 ovarian = tested on: IGROV1 ovarian
RXF 393 renal = tested on: RXF 393 renal

Cc1c(-c2ccc(N3CCc4cccc(C(=O)Nc5nc6ccccc6s5)c4C3)nc2C(=O)O)cnn1CC12CC3CC(CC(C3)C1)C2
GI50 (HCC-2998 colon): < 0.01 µM | TGI (HCC-2998 colon): 0.0661 µM | GI50 (DU-145 prostate): 16.7 µM | TGI (DU-145 prostate): 30.4 µM | GI50 (M14 melanoma): 16 µM | TGI (M14 melanoma): 29.5 µM | GI50 (NCI-H23 lung): 8.42 µM | TGI (NCI-H23 lung): 20.9 µM | GI50 (ACHN renal): 11.6 µM | TGI (ACHN renal): 23.8 µM | GI50 (HT29 colon): 12.9 µM | TGI (HT29 colon): 25.6 µM | GI50 (NCI-H460 NSCLC): 17.1 µM | TGI (NCI-H460 NSCLC): 30.8 µM | GI50 (SK-MEL-2 melanoma): < 0.01 µM | TGI (SK-MEL-2 melanoma): 2.67 µM | GI50 (NCI/ADR-RES ovarian): 13.5 µM | TGI (NCI/ADR-RES ovarian): 26.4 µM | GI50 (OVCAR-4 ovarian): 0.0115 µM | TGI (OVCAR-4 ovarian): 13.2 µM | GI50 (NCI-H226 lung): 1 µM | TGI (NCI-H226 lung): 11.5 µM | GI50 (SK-MEL-5 melanoma): 12.8 µM | TGI (SK-MEL-5 melanoma): 25.4 µM | GI50 (LOX IMVI melanoma): 6.46 µM | TGI (LOX IMVI melanoma): 18.6 µM | GI50 (RPMI-8226 leukemia): < 0.01 µM | TGI (RPMI-8226 leukemia): < 0.01 µM | GI50 (HCT-15 colon): 4.28 µM | TGI (HCT-15 colon): 16.6 µM | GI50 (A549 NSCLC): 8.57 µM | TGI (A549 NSCLC): 21 µM | GI50 (U251 glioblastoma): 11.6 µM | TGI (U251 glioblastoma): 23.9 µM | GI50 (UO-31 renal): 1.14 µM | TGI (UO-31 renal): 12 µM | GI50 (SN12C renal): 13.5 µM | TGI (SN12C renal): 26.4 µM | GI50 (UACC-257 melanoma): 9.83 µM | TGI (UACC-257 melanoma): 21.5 µM | GI50 (K-562 leukemia): 10.8 µM | TGI (K-562 leukemia): 22.8 µM | GI50 (A498 renal): 0.0911 µM | TGI (A498 renal): 2.39 µM | GI50 (MALME-3M melanoma): 11.6 µM | TGI (MALME-3M melanoma): 23.8 µM | GI50 (MDA-MB-468 breast): 1.7 µM | TGI (MDA-MB-468 breast): 7.04 µM | GI50 (CAKI-1 renal): 13.8 µM | TGI (CAKI-1 renal): 26.8 µM | GI50 (SR leukemia): 0.0191 µM | TGI (SR leukemia): 2.47 µM | GI50 (HL-60(TB) leukemia): 2.53 µM | TGI (HL-60(TB) leukemia): 5.94 µM | GI50 (PC-3 prostate): 4.89 µM | TGI (PC-3 prostate): 17.4 µM | GI50 (SW-620 colon): 12.4 µM | TGI (SW-620 colon): 24.8 µM | GI50 (BT-549 breast): 9.65 µM | TGI (BT-549 breast): 21.4 µM | GI50 (TK-10 renal): 2.48 µM | TGI (TK-10 renal): 16 µM | GI50 (SNB-19 CNS): 10 µM | TGI (SNB-19 CNS): 21.6 µM | GI50 (OVCAR-8 ovarian): 11.8 µM | TGI (OVCAR-8 ovarian): 24.1 µM | GI50 (SF-539 CNS): 14.6 µM | TGI (SF-539 CNS): 27.8 µM | GI50 (OVCAR-3 ovarian): 4.03 µM | TGI (OVCAR-3 ovarian): 18.1 µM | GI50 (MOLT-4 leukemia): < 0.01 µM | TGI (MOLT-4 leukemia): < 0.01 µM | GI50 ([…]-0 renal): 3.65 µM | TGI (786-0 renal): 15.5 µM | GI50 (SF-268 CNS): 15.2 µM | TGI (SF-268 CNS): 28.5 µM | GI50 (MDA-MB-231 breast): < 0.01 µM | TGI (MDA-MB-231 breast): 0.186 µM | GI50 (KM12 colon): 11.2 µM | TGI (KM12 colon): 23.2 µM | GI50 (OVCAR-5 ovarian): 0.351 µM | TGI (OVCAR-5 ovarian): 12.5 µM | GI50 (HOP-62 NSCLC): 15.3 µM | TGI (HOP-62 NSCLC): 28.7 µM | GI50 (SK-MEL-28 melanoma): 4.35 µM | TGI (SK-MEL-28 melanoma): 16.3 µM | GI50 (T-47D breast): 10.6 µM | TGI (T-47D breast): 22.4 µM | GI50 (NCI-H522 lung): 3.66 µM | TGI (NCI-H522 lung): 17.6 µM | GI50 (HCT-116 colon): 3.88 µM | TGI (HCT-116 colon): 16.9 µM | GI50 (MCF7 breast): 14.2 µM | TGI (MCF7 breast): 27.2 µM | GI50 (MDA-MB-435 melanoma): 2.47 µM | TGI (MDA-MB-435 melanoma): 14 µM | GI50 (SF-295 CNS): 3.63 µM | TGI (SF-295 CNS): 15.2 µM | GI50 (HOP-92 NSCLC): < 0.01 µM | TGI (HOP-92 NSCLC): 0.0174 µM | GI50 (COLO 205 colon): 0.272 µM | TGI (COLO 205 colon): 1.73 µM | GI50 (UACC-62 melanoma): 13.6 µM | TGI (UACC-62 melanoma): 26.4 µM | GI50 (CCRF-CEM leukemia): < 0.01 µM | TGI (CCRF-CEM leukemia): 0.0112 µM | GI50 (NCI-H322M lung): 7.97 µM | TGI (NCI-H322M lung): 21 µM | GI50 (SK-OV-3 ovarian): 6.03 µM | TGI (SK-OV-3 ovarian): 18.7 µM | GI50 (IGROV1 ovarian): 1.67 µM | TGI (IGROV1 ovarian): 4 µM | GI50 (RXF 393 renal): < 0.01 µM | TGI (RXF 393 renal): 0.0108 µM
